In patent US7504423B2, “α-amino acid derivatives and use thereof as medicines” (Mitsubishi Tanabe Pharma Corporation, priority 2003, dated 2009):

How the values were obtained:
[1] = target: T1, Human plasma DPP-IV (Homo sapiens, UniProt P27487); experiment: Plasma DPP-IV inhibitory activity (fluorescence assay, Gly-Pro-MCA substrate), human plasma; assay type: biochemical; details: human plasma (10-fold diluted), room temperature, 60 min
T1 construct: Human plasma DPP-IV; from tissue; host or cells: human plasma
Method: (§1) (Plasma DPP-IV Inhibitory Activity)
(§2) The plasma DPP-IV inhibitory activity of human and rat was measured by the fluorescence assay method. Using Gly-Pro-MCA (Peptide Institute Inc.) as a DPP-IV specific fluorescent substrate, reaction solutions having the following compositions and containing test substances having various concentrations were incubated at room temperature for 60 min and the measured (SPECTRA FLUOR, TECAN) fluorescent intensity (Excitation 360 nm/Emission 465 nm) was taken as the DPP-IV activity.
(§3) As a buffer, 0.003% Brij-35-containing phosphate buffer (PBS, Sigma-Aldrich Co.) was used.
(§4) A reaction solution free of the test substance was used as a control.
(§5) The inhibitory rate of the test substance relative to the reaction of the control was calculated, and IC50 values were determined by logistic analysis. The IC50 values of the plasma DPP-IV inhibitory activity of the present invention as determined by the above method are shown in the following table.

[2] = target: T2, Rat plasma DPP-IV (Rattus norvegicus, UniProt P14740); experiment: Plasma DPP-IV inhibitory activity (fluorescence assay, Gly-Pro-MCA substrate), rat plasma; assay type: biochemical; details: rat plasma (10-fold diluted), room temperature, 60 min
T2 construct: Rat plasma DPP-IV; from tissue; host or cells: rat plasma
Method: as §1, §2, §3, §4, §5

T2 sequence (P14740 38-767 limits assumed): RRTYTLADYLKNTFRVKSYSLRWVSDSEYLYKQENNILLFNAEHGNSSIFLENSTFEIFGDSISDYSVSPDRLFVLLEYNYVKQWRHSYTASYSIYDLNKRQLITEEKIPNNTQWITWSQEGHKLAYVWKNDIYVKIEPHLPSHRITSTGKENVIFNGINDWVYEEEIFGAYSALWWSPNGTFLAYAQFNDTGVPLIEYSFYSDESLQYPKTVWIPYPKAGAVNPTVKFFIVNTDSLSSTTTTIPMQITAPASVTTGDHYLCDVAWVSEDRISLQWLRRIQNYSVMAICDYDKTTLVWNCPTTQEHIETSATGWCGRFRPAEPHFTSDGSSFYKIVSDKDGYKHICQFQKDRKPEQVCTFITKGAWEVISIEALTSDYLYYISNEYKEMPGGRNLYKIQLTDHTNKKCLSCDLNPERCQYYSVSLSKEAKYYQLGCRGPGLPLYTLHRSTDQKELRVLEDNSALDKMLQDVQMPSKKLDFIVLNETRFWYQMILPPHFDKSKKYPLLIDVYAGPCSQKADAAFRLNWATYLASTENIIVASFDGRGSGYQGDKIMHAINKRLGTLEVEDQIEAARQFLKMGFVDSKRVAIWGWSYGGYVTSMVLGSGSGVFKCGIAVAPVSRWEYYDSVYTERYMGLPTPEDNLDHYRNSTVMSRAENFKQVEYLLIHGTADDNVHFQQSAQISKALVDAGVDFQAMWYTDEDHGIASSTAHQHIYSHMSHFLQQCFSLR
T1 sequence (P27487 39-766 limits assumed): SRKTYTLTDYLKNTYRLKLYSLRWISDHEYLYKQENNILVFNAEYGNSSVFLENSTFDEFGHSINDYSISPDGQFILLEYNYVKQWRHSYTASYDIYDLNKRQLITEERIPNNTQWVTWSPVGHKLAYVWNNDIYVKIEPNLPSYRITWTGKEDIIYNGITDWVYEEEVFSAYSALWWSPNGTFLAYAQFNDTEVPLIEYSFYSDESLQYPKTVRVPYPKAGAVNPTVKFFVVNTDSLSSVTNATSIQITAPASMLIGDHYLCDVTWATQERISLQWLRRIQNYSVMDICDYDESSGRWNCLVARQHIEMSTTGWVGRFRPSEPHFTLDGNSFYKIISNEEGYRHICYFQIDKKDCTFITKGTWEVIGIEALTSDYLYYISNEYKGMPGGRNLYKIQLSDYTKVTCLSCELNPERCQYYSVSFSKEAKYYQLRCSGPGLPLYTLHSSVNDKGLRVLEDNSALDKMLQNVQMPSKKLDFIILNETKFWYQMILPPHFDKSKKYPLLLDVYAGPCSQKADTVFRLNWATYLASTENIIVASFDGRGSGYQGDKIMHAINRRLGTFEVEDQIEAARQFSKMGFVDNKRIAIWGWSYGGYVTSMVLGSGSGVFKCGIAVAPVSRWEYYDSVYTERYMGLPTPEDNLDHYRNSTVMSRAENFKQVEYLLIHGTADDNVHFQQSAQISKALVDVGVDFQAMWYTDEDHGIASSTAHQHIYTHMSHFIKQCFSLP

| IC50 [1] | IC50 [2] | SMILES |
| --- | --- | --- |
| 1.6 nM | 1.4 nM | N#Cc1ccc(N2CCN([C@H]3CC[C@@H]([C@H](N)C(=O)N4CCSC4)CC3)CC2)nc1 [Example 2, 3-((S)-2-amino-2-{cis-4-[4-(5-cyano-2-pyridyl)-1-piperazinyl]-1-cyclohexyl}acetyl)-1,3-thiazolidine] |
| 2.1 nM | 1.4 nM | N[C@H](C(=O)N1CCSC1)[C@H]1CC[C@@H](N2CCN(c3nc4ccccc4s3)CC2)CC1 [Example 14, 3-((S)-2-amino-2-{cis-4-[4-(2-benzothiazolyl)-1-piperazinyl]-1-cyclohexyl}acetyl)-1,3-thiazolidine] |
